Measured values from US20240293430A1, “WITHAFERIN A AND IMMUNE CHECKPOINT BLOCKER COMBINATION THERAPIES” (University of South Florida, priority 2023, published 2024).

Assays:
[1] = tested on: WI-38 lung fibroblasts and PBMCs; conditions: at WFA concentrations toxic to A549 NSCLC cells; cited from earlier work
[2] = tested on: NSCLC cell lines (LLC, H1650 and A549); test: Cell Titer-Glo cell viability assay; type: cell-based, mouse (LLC), human (H1650; conditions: 48 h, range over LLC
Method: FIGS. 1A-lE depict that WFA induces ER stress-mediated apoptosis in NSCLC cell lines. (FIG. 1A) NSCLC cells were plated on 96-well plates and treated with different concentrations of WFA ([…]) in triplicates. Forty-eight hours post-treatment, cell viability was determined using Cell Titer-Glo assay. Luminescence values were normalized to control untreated cells and IC50 values are represented as the mean of two independent experiments ±SEM. (FIG. 1B) NSCLC cells were treated WFA for forty-eight hours, then collected to measure apoptotic cell death using Annexin V assay in LLC cells, H1650 cells, and A549 cells. Percentages of early (annexin*DAPI-) and late (annexin*DAPI+) apoptotic cells are represented as means of two separate experiments ±SEM and statistical significance was calculated using one-way ANOVA and a Fisher LSD post hoc test was used to compare the mean of each group to that of the control group. […] The quantification of western blot band density was performed using Image J software v.1.54d and normalized to housekeeping control protein in LLC cells (0-actin). […]
LLC, H1650, or A549 was plated in 96-well plates and treated with WFA (serialdilutions 10-0.078 μM) in triplicates. […] Forty-eight hours after treatment, cell viability was determined using Cell Titer-Glo assay (Promega, Madison, WI, USA) according to the manufacturer's instructions. […]

[3] = tested on: secreted HMGB-1 from LLC cells; test: HMGB-1 ELISA of supernatants; type: cell-based, mouse; conditions: 0.6 μM WFA, 48 h
Method: Cells were treated with WFA for 48 h then collected using Accutase cell detachment solution. […] (FIG. 2E) Bone marrow-derived DC were co-cultured with WFA-pretreated LLC cells (24 h) in a ratio 5:1 of DC:LLC cells for 24 h.
LLC cells were plated and treated with WFA or doxorubicin (ICD inducer) for 48 h. Supernatants were collected and centrifuged at 1000 RPM for 10 min. The levels of secreted HMGB-1 were measured using the HMGB-1 detection ELISA kit (Chondrex, 6010, Woodinville, WA, USA) according to the manufacturer's protocol.

- IC50 [2]: 500 to 1500 nM
Structure (SMILES): CC1=C(CO)C(=O)O[C@@H]([C@@H](C)[C@H]2CC[C@H]3[C@@H]4C[C@H]5O[C@]56[C@@H](O)C=CC(=O)[C@]6(C)[C@H]4CC[C@]23C)C1 [WFA, Withaferin A]
- viability of normal cells [1]: remain viable
- HMGB-1 levels secreted in the supernatants [3]: increased
